One compound from PMC6669322, “Small Molecule Binding to Alzheimer Risk Factor CD33 Promotes Aβ Phagocytosis” (iScience, 2019) can be followed below.

The target of this assay is T1, CD33^C36S (Homo sapiens, UniProt P20138, C36S).
T1 construct: DNA encoding D18 to H143 of human CD33; octa-histidine tag with TEV protease cleavage site (N); made in house
The assay is described as follows: surface plasmon resonance (SPR), CD33^C36S V-set domain. Format: binding. The following applies: P22 as analyte, captured CD33^C36S; 1:1 steady state model. Here is the method:
We next performed surface plasmon resonance (SPR) measurements on P22 binding to CD33 wild-type, and selected mutants, to obtain detailed kinetic data (see Transparent Methods). The CD33 V-set domain has a free cysteine residue (C36), which caused anomalous results in some of our SPR experiments due to disulfide-linked oligomers forming in solution.
Figure 3 P22 Binding to CD33 Wild-Type and Mutants (A) An example of affinity analysis for 1–243 μM (3-fold dilutions) of P22 binding to immobilized CD33^C36S. Data obtained in duplicate using single-cycle analysis and fit to a steady-state binding model to determine the equilibrium binding constant. (B) An example of affinity analysis of P22 binding to immobilized CD33 wild-type (WT) as per example in (A). (C) Sensorgram data for 0.01–9 μM (3-fold dilutions) of CD33^C36S binding to immobilized P22. Data obtained in triplicate using single concentration cycles and fit to a 1:1 binding model for kinetic analysis. (D) Sensorgram data for 0.03–9 μM (3-fold dilutions) CD33 WT binding to immobilized P22. Data obtained in triplicate using single concentration cycles and fit to a bivalent analyte model for kinetic analysis. Measurements in triplicate showing mean ± SD. […] Data presented are representative of three independent experiments performed in quadruplicate for each compound. […]

Each structure is given as a SMILES string. Several values for one entry are separate records, joined by “and”; a condition that tells them apart may be missing. Identical values can stand only once.

T1 sequence (P20138 18-143 C36S): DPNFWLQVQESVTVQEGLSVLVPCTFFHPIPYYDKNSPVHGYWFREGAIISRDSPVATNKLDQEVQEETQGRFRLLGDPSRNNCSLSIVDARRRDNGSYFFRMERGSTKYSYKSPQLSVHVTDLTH

By Kd is commonly meant the concentration at which binding is half-saturated. Turning to `Cc1cc(C(=O)NC[C@@H](O)[C@@H](O)[C@@H]2O[C@@](OC[C@H]3O[C@@H](O[C@H]4[C@H](O)[C@@H](O)[C@H](OCCN)O[C@@H]4CO)[C@H](O)[C@@H](O)[C@H]3O)(C(=O)O)C[C@H](O)[C@H]2NC(=O)Cn2cc(C3CCCCC3)nn2)cc(C)c1O` [P22, β-D-Glucopyranoside, 2-aminoethyl O-[N-[2-(4-cyclohexyl-1H-1,2,3-triazol-1-yl)acetyl]-9-deoxy-9-[(4-hydroxy-3,5-dimethylbenzoyl)amino]-α-neuraminosyl] (2→6)-O-β-D-galactopyranosyl-(1→4)-], the dissociation constant (Kd) is 95 µM and 95.2 µM.
